Assay results published in ChEMBL document CHEMBL5346893, “1,2,4-Amino-triazine derivatives as pyruvate dehydrogenase kinase inhibitors: Synthesis and pharmacological evaluation” (Eur J Med Chem, 2023).
The source made the active and inactive calls. The calls are words filed in the database; no cut-off is given here.

Legend:
[1] = test system: PSN1; test: Induction of mitochondrial damage in human PSN1 cells assessed as decrease in mitochondria matrix region electron density at IC50 incubated for 24 hrs by staining based TEM analysis; assay type: functional, cell-based
[2] = test system: PSN1; test: Induction of mitochondrial damage in human PSN1 cells assessed as decrease in mitochondria inner membrane electron density at IC50 incubated for 24 hrs by staining based TEM analysis; assay type: functional, cell-based
[3] = molecular target: T1, [Pyruvate dehydrogenase (acetyl-transferring)] kinase isozyme 1, mitochondrial (Homo sapiens, UniProt Q15118); test: Inhibition of PDK1 (unknown origin) incubated for 30 mins followed by substrate addition measured after 60 mins in presence of ATP by ADP-Glo luminescent assay
[4] = test system: Lewis lung carcinoma; test: In vivo antitumor activity against mouse Lewis lung carcinoma cell line implanted in C57BL mouse assessed as reduction in PDHA1 phosphorylation at 20 mg/kg, ip administered daily on day 7 to 14 measured after 15 days by ELISA assay; assay type: functional, organism-based; details: time 15.0 day
[5] = test system: PSN1; test: Antiproliferative activity against human PSN1 cells expressing KRAS mutant cultured as 2D spheroids assessed as inhibition of cell growth measured after 72 hrs by MTT assay; assay type: functional, cell-based; details: PSN1, 72 h
[6] = molecular target: T1, [Pyruvate dehydrogenase (acetyl-transferring)] kinase isozyme 1, mitochondrial; test: Inhibition of PDK1 (unknown origin) at 1.5 uM incubated for 30 mins followed by substrate addition measured after 60 mins in presence of ATP by ADP-Glo luminescent assay relative to control; details: time 90.0 min, values are per cent of control
[7] = test system: BXPC-3; test: Antiproliferative activity against human BXPC-3 cells expressing wild type KRAS cultured as 3D spheroids assessed as inhibition of cell growth measured after 72 hrs by MTT assay; assay type: functional, cell-based; details: BXPC-3, 72 h
[8] = test system: PSN1; test: Antiproliferative activity against human PSN1 cells expressing KRAS mutant cultured as 3D spheroids assessed as inhibition of cell growth measured after 72 hrs by MTT assay; assay type: functional, cell-based; details: PSN1, 72 h
[9] = test system: PSN1; test: Induction of reactive oxygen species production in human PSN1 cells assessed as decrease in total cellular sulfhydryls level at IC50 incubated for 24 hrs by DTNB reagent based spectrophotometric analysis; assay type: functional, cell-based
[10] = Toxicity in C57BL mouse implanted with mouse Lewis lung carcinoma cell line assessed as reduction in body weight loss at 20 mg/kg, ip administered daily on day 7 to 14 measured after 15 days; assay type: organism-based; details: in vivo, 360 h, time 15 day
[11] = test system: PSN1; test: Induction of apoptosis in human PSN1 cells assessed as chromatin condensation at IC50 incubated for 48 hrs by Hoechst 33258 staining based confocal microscopic analysis; assay type: functional, cell-based
[12] = test system: PSN1; test: Induction of mitochondrial damage in human PSN1 cells assessed as increase in mitochondria substantial swelling at IC50 incubated for 24 hrs by staining based TEM analysis; assay type: functional, cell-based
[13] = Toxicity in C57BL mouse implanted with mouse Lewis lung carcinoma cell line assessed as anorexia at 20 mg/kg, ip administered daily on day 7 to 14 measured after 15 days; assay type: organism-based; details: in vivo, 360 h, time 15 day
[14] = molecular target: [Pyruvate dehydrogenase (acetyl-transferring)] kinase isozyme 2, mitochondrial (Homo sapiens) (UniProt Q15119); test: Inhibition of PDK2 (unknown origin) at 1.5 uM incubated for 30 mins followed by substrate addition measured after 60 mins in presence of ATP by ADP-Glo luminescent assay relative to control; details: time 90.0 min
[15] = test system: PSN1; test: Induction of mitochondrial membrane potential loss in human PSN1 cells at IC50 incubated for 60 mins by fluorescence based analysis; assay type: functional
[16] = test system: PSN1; test: Induction of apoptosis in human PSN1 cells assessed as brightly stained nuclei at IC50 incubated for 48 hrs by Hoechst 33258 staining based confocal microscopic analysis; assay type: functional, cell-based
[17] = test system: PSN1; test: Downregulation of PDHA1 phosphorylation in human PSN1 cells at IC50 incubated for 24 hrs by ELISA assay; assay type: functional, cell-based
[18] = molecular target: [Pyruvate dehydrogenase (acetyl-transferring)] kinase isozyme 4, mitochondrial (Homo sapiens) (UniProt Q16654); test: Inhibition of PDK4 (unknown origin) at 1.5 uM incubated for 30 mins followed by substrate addition measured after 60 mins in presence of ATP by ADP-Glo luminescent assay relative to control; details: time 90.0 min
[19] = test system: PSN1; test: Induction of mitochondrial damage in human PSN1 cells assessed as increase in disruption of cristae at IC50 incubated for 24 hrs by staining based TEM analysis; assay type: functional, cell-based
[20] = test system: PSN1; test: Inhibition of PDK in human PSN1 cells expressing KRAS mutant assessed as decrease in lactate production levels at IC50 incubated for 60 mins by colorimetric analysis; assay type: cell-based
[21] = In vivo antitumor activity against mouse Lewis lung carcinoma cell line implanted in C57BL mouse assessed as tumor growth inhibition at 20 mg/kg, ip administered daily on day 7 to 14 measured after 15 days; assay type: functional; details: 360 h, time 15 day, read-out: TGI
[22] = test system: PSN1; test: Induction of reactive oxygen species production in human PSN1 cells assessed as increase in cellular hydrogen peroxide formation at 5 uM by CM-H2DCFDA staining based analysis; assay type: functional, cell-based
[23] = test system: BXPC-3; test: Antiproliferative activity against human BXPC-3 cells expressing wild type KRAS cultured as 2D spheroids assessed as inhibition of cell growth measured after 72 hrs by MTT assay; assay type: functional, cell-based; details: BXPC-3, 72 h
[24] = molecular target: T2, Heat shock protein HSP90 (Homo sapiens, UniProt P07900+P08238); test: Inhibition of human recombinant HSP90 incubated for 30 mins by fluorescence polarization based analysis; assay type: protein assay
[25] = molecular target: [Pyruvate dehydrogenase (acetyl-transferring)] kinase isozyme 3, mitochondrial (Homo sapiens) (UniProt Q15120); test: Inhibition of PDK3 (unknown origin) at 1.5 uM incubated for 30 mins followed by substrate addition measured after 60 mins in presence of ATP by ADP-Glo luminescent assay relative to control; details: time 90.0 min
[26] = test system: PSN1; test: Inhibition of PDK in human PSN1 cells expressing KRAS mutant assessed as increase in cellular oxygen consumption at IC50 incubated for 60 mins by fluorescence based analysis; assay type: cell-based
[27] = molecular target: T2, Heat shock protein HSP90; test: Inhibition of human recombinant HSP90 at 1.5 uM incubated for 30 mins by fluorescence polarization based analysis relative to control; assay type: protein assay
[28] = In vivo antitumor activity against mouse Lewis lung carcinoma cell line implanted in C57BL mouse assessed as tumor growth inhibition at 60 mg/kg, ip administered daily on day 7 to 14 measured after 15 days; assay type: functional; details: 360 h, time 15 day, read-out: TGI

Chain of [Pyruvate dehydrogenase (acetyl-transferring)] kinase isozyme 4, mitochondrial (Homo sapiens) (Q16654 whole entry, looked up): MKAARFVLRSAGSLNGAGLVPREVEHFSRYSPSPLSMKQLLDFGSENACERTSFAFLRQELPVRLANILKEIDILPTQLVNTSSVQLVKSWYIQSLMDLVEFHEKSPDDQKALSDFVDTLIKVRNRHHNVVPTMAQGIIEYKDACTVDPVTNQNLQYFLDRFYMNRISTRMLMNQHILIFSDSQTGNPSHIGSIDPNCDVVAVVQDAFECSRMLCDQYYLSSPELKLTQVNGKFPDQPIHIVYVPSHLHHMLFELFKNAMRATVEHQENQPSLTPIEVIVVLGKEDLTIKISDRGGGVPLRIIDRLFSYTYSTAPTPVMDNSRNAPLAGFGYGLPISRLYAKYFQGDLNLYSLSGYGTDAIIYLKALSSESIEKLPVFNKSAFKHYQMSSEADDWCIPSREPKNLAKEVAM
T1 sequence (Q15118 whole entry): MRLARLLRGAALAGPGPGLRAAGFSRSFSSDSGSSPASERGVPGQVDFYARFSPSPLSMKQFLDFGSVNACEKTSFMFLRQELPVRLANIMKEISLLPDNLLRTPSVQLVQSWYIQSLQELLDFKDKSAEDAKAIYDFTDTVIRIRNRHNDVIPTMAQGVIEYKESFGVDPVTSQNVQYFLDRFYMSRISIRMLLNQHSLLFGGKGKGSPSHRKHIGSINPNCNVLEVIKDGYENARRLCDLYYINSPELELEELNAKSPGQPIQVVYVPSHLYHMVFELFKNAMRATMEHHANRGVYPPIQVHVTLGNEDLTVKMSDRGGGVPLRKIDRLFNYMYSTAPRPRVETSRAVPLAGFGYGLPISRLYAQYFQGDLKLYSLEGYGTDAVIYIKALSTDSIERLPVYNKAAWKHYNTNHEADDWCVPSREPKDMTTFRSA
Chain of [Pyruvate dehydrogenase (acetyl-transferring)] kinase isozyme 3, mitochondrial (Homo sapiens) (Q15120 whole entry, looked up): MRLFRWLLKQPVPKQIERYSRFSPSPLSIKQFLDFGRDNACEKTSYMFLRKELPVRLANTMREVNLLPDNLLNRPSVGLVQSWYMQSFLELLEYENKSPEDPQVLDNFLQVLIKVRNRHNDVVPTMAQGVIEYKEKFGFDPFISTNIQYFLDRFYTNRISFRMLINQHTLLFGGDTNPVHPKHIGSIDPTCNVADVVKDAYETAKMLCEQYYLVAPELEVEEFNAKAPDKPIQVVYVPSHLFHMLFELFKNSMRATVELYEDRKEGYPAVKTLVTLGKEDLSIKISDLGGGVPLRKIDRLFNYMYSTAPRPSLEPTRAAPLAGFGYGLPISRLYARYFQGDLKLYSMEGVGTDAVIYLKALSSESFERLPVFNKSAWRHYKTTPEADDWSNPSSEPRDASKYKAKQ

| Compound | Activity [1] | Activity [2] | IC50 [3] | IC50 [5] | residual activity [6] | IC50 [7] | IC50 [8] | Activity [9] | Activity [11] | Activity [12] | inhibition [14] | Activity [16] | Activity [17] | inhibition [18] | Activity [19] | inhibition [20] | Activity [22] | IC50 [23] | inhibition [26] | inhibition [27] | other results |
| --- | --- | --- | --- | --- | --- | --- | --- | --- | --- | --- | --- | --- | --- | --- | --- | --- | --- | --- | --- | --- | --- |
| COc1ccc2[nH]cc(-c3nnc(N)nc3-c3cn(C)c4ncc(Br)cc34)c2c1 | Active | Active | 30 nM | 1000 nM | 0% | 3300 nM | 11900 nM | Active | Active | Active | 100% | Active | Active | 0% | Active | Active | Active | 100 nM | Active | 0% | Activity [4]: Active; Activity [10]: Non-Toxic; Activity [13]: ~ 20%; Activity ([15]; 1 h): 45%; inhibition in vivo at 20 mg/kg [21]: 86%; IC50 [24]: 100 nM; inhibition [25]: 100% |
| Cn1cc(-c2nnc(N)nc2-c2c[nH]c3ccc(F)cc23)c2cc(Br)cnc21 | Active | Active | 60 nM | 600 nM | 0% | 6900 nM | 11200 nM | Active | Active | Active | 100% | Active | Active | 0% | Active | Active | Active | 200 nM | Active | 60% | Activity [15]: Active |
| Cn1cc(-c2nnc(N)nc2-c2c[nH]c3ccc(Br)cc23)c2cc(Br)cnc21 | – | – | 210 nM | 1300 nM | 60% | 24800 nM | 39100 nM | Active | – | – | 100% | – | Active | 60% | – | Active | Active | 100 nM | Active | 40% | Activity [15]: Active; IC50 [24]: 1400 nM |
| Nc1ccn([C@@H]2O[C@H](CO)[C@@H](O)C2(F)F)c(=O)n1 [GEMCITABINE] | – | – | – | 20 nM | – | – | – | – | – | – | – | – | – | – | – | – | – | 100 nM | – | – | inhibition in vivo at 60 mg/kg [28]: 80% |
